Literature values as cited in PubChem BioAssay AID1259409 (Chemical Carcinogenesis Research Information System (CCRIS), 2018).

Tested on: rodent chemically induced tumor inhibition, incidence and multiplicity
Assay: CCRIS tumor inhibitor studies

COc1ccc2c(c1)c(CC(=O)O)c(C)n2C(=O)c1ccc(Cl)cc1
tumour outcome (control, treated, inhibition, significance) (Carcinogen: METHYLAZOXYMETHANOL, 590-96-5, Dose [Inhibitor]: 7.5 MG/KG BW DAILY FOR 3 WK STARTING 27 WK AFTER THE START OF CARCINOGEN TREATMENT (STUDY DURATION: 30 WK), Route [Inhibitor]: INTRARECTAL, Species: RAT, Strain/Sex: DONRYU/MALE, Target Tissue: Type of Lesion: SMALL INTESTINE: ADENOCARCINOMA, Dose [Carcinogen]: 20 MG/KG BW 1/WK FOR 6 WK, Promoter: NONE USED): 10/23 (43%), 4/30 (13%), 70%, p<0.05
tumour outcome (control, treated, inhibition, significance) (Carcinogen: N,N-DIETHYLNITROSAMINE, 55-18-5, Dose [Inhibitor]: 0.016 MG/ML IN DRINKING WATER 3/WK FOR 4 MO STARTING 4 MO AFTER THE START OF CARCINOGEN TREATMENT AND CONTINUING FOR DUR, Route [Inhibitor]: ORAL, Species: MOUSE, Strain/Sex: C57BL/MALE, Target Tissue: Type of Lesion: ESOPHAGUS: TUMOR, Dose [Carcinogen]: 0.04 ML/1000 ML DRINKING WATER DAILY FOR 30 D THEN EVERY SECOND WK TO COMPLETE 5 MO PERIOD, Promoter: NONE USED): 16/16 (100%), 19/19 (100%), 0%, not significant
tumour outcome (control, treated, inhibition, significance) (Carcinogen: N,N-DIETHYLNITROSAMINE, 55-18-5, Dose [Inhibitor]: 0.016 MG/ML IN DRINKING WATER GIVEN TOGETHER WITH CARCINOGEN STARTING AT THE BEGINNING OF THE STUDY DAILY FOR 14 D AND 3, Route [Inhibitor]: ORAL, Species: MOUSE, Strain/Sex: C57BL/MALE, Target Tissue: Type of Lesion: ESOPHAGUS: TUMOR, Dose [Carcinogen]: 0.04 ML/1000 ML DRINKING WATER DAILY FOR 14 D THEN 3 D/WK FOR DURATION OF STUDY, Promoter: NONE USED): 24/24 (100%), 45/45 (100%), 0%, not significant
tumour outcome (control, treated, inhibition, significance) (Carcinogen: N,N-DIETHYLNITROSAMINE, 55-18-5, Dose [Inhibitor]: 0.016 MG/ML IN DRINKING WATER GIVEN TOGETHER WITH CARCINOGEN STARTING AT THE BEGINNING OF THE STUDY DAILY FOR 30 D THEN, Route [Inhibitor]: ORAL, Species: MOUSE, Strain/Sex: C57BL/MALE, Target Tissue: Type of Lesion: ESOPHAGUS: TUMOR, Dose [Carcinogen]: 0.04 ML/1000 ML DRINKING WATER GIVEN TOGETHER WITH AGENT, Promoter: NONE USED): 8/8 (100%), 16/16 (100%), 0%, not significant
tumour outcome (control, treated, inhibition, significance) (Carcinogen: N-BUTYL-N-(4-HYDROXYBUTYL)NITROSAMINE, 3817-11-6, Dose [Inhibitor]: 0, 7.5 MG/KG DIET BEGINNING 1 WK PRIOR TO CARCINOGEN TREATMENT AND CONTINUING FOR DURATION OF STUDY (STUDY DURATION: 187, Route [Inhibitor]: ORAL, Species: MOUSE, Strain/Sex: BDF/MALE, Target Tissue: Type of Lesion: URINARY BLADDER: TUMOR, Dose [Carcinogen]: 7.5 MG IN 0.1 ML OF ETHANOL:WATER (20:80) 1/WK FOR 8 WK, Promoter: NONE USED): 24%, 5%, 79%, p<0.05
tumour outcome (control, treated, inhibition, significance) (Carcinogen: N-BUTYL-N-(4-HYDROXYBUTYL)NITROSAMINE, 3817-11-6, Dose [Inhibitor]: 0, 15 MG/KG DIET BEGINNING 1 WK PRIOR TO CARCINOGEN TREATMENT AND CONTINUING FOR DURATION OF STUDY (STUDY DURATION: 187, Route [Inhibitor]: ORAL, Species: MOUSE, Strain/Sex: BDF/MALE, Target Tissue: Type of Lesion: URINARY BLADDER: TUMOR, Dose [Carcinogen]: 7.5 MG IN 0.1 ML OF ETHANOL:WATER (20:80) 1/WK FOR 8 WK, Promoter: NONE USED): 24%, 0%, 100%, p<0.01
tumour outcome (control, treated, inhibition, significance) (Carcinogen: N-BUTYL-N-(4-HYDROXYBUTYL)NITROSAMINE, 3817-11-6, Dose [Inhibitor]: 0, 20 PPM IN DRINKING WATER FOR 20 WK BEGINNING POST PROMOTER TREATMENT (STUDY DURATION: 44 WK), Route [Inhibitor]: ORAL, Species: RAT, Strain/Sex: F344/MALE, Target Tissue: Type of Lesion: URINARY BLADDER: PAPILLOMA, Dose [Carcinogen]: 0.05% IN DRINKING WATER FOR 4 WK, Promoter: BUTYLATED HYDROXYANISOLE, 25013-16-5): 6/15 (40%), 9/15 (60%), -50%, not significant
tumour outcome (control, treated, inhibition, significance) (Carcinogen: N-BUTYL-N-(4-HYDROXYBUTYL)NITROSAMINE, 3817-11-6, Dose [Inhibitor]: 0, 20 PPM IN DRINKING WATER FOR 20 WK BEGINNING POST PROMOTER TREATMENT (STUDY DURATION: 44 WK), Route [Inhibitor]: ORAL, Species: RAT, Strain/Sex: F344/MALE, Target Tissue: Type of Lesion: URINARY BLADDER: PAPILLOMA, Dose [Carcinogen]: 0.05% IN DRINKING WATER FOR 4 WK, Promoter: SODIUM L-ASCORBATE, 134-03-2): 10/15 (67%), 10/15 (67%), 0%, not significant
tumour outcome (control, treated, inhibition, significance) (Carcinogen: N-BUTYL-N-(4-HYDROXYBUTYL)NITROSAMINE, 3817-11-6, Dose [Inhibitor]: 0, 20 PPM IN DRINKING WATER FOR 20 WK BEGINNING POST PROMOTER TREATMENT (STUDY DURATION: 44 WK), Route [Inhibitor]: ORAL, Species: RAT, Strain/Sex: F344/MALE, Target Tissue: Type of Lesion: URINARY BLADDER: TRANSITIONAL CELL CARCINOMA, Dose [Carcinogen]: 0.05% IN DRINKING WATER FOR 4 WK, Promoter: BUTYLATED HYDROXYANISOLE, 25013-16-5): 3/15 (20%), 3/15 (20%), 0%, not significant
tumour outcome (control, treated, inhibition, significance) (Carcinogen: N-BUTYL-N-(4-HYDROXYBUTYL)NITROSAMINE, 3817-11-6, Dose [Inhibitor]: 0, 20 PPM IN DRINKING WATER FOR 20 WK BEGINNING POST PROMOTER TREATMENT (STUDY DURATION: 44 WK), Route [Inhibitor]: ORAL, Species: RAT, Strain/Sex: F344/MALE, Target Tissue: Type of Lesion: URINARY BLADDER: TRANSITIONAL CELL CARCINOMA, Dose [Carcinogen]: 0.05% IN DRINKING WATER FOR 4 WK, Promoter: SODIUM L-ASCORBATE, 134-03-2): 6/15 (40%), 2/15 (13%), 67%, not significant
